Assay results published in PubChem BioAssay (NCI).
Several values for one entry are separate records, joined by “and”; a condition that tells them apart may be missing. Equal values may be shown once.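 How tested: cells in 96-well plates exposed to compound for 48 hours at five concentrations. GI50 is the concentration that inhibits growth by half. The concentration for full growth arrest is given as TGI.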

Test system: MDA-MB-468 breast
Experiment: growth of human tumour cells (NCI), 48 h

Structure (SMILES) | GI50 | TGI [µM]
Cc1noc(C)c1-c1ccc2[nH]c(=O)n3c2c1OC[C@@H]3c1ccccn1 | 0.719 µM | > 91.3
CNc1nc(NC2CCCC2)nc(Sc2ccc(OC)cc2)n1 | > 10 µM | > 10
C=C(C)[C@@H]1CC[C@@]2(C(=O)O)CC[C@]3(C)C(CCC4[C@@]5(C)CCC(OS(=O)(=O)c6ccccc6)C(C)(C)C5CC[C@]43C)C12 (some centres not stated) | 2.76 µM | 22.6
CN(C)c1nc(-c2cccs2)n2nc(-c3ccc(Cl)cc3)cc2n1 | 3.1 µM | > 100
CN1CCN(Cc2ccc(NC(=O)c3ccc(C(C)(C)C)c(C#Cc4cnc5cccnn45)c3)cc2C(F)(F)F)CC1 | 1.98 µM | 3.77
CNC(=O)c1cc(Oc2ccc(NC(=O)Nc3ccc(Cl)c(OC(F)(F)F)c3)c(F)c2)ccn1 | 1.02 µM | 4.77
CCn1c(-c2nonc2N)nc2ccc(F)cc21 | > 25 µM | > 25
CCCCCC(=O)Oc1ccc(/C(=C(\C)c2ccc(OC)cc2)c2ccc(OCCN3CCCCC3)cc2)cc1 | 4.02 µM | 15.8
CN(C)CCCNc1c2ccc(Cl)cc2nc2c1oc1ccccc12 | 3.32 µM | 14
FC(F)(F)c1ccc2c(Nc3cccc(C4CC(c5ccccc5)=NN4c4ccc(Cl)cc4)c3)ccnc2c1 (configuration not stated) | 3.02 µM | 16.6
COc1ccc2c(c1)C=CC(C#N)N2C(=O)c1ccccc1 (configuration not stated) | < 0.01 µM | > 100
N#Cc1c(-c2ccccc2)nc2c(c(-c3ccccc3)nn2-c2ccccc2)c1-c1ccc(O)cc1 | 2.41 µM | 5.57
CCN(CCO)CCNc1ccc(C)c2sc3cc(Cl)ccc3c(=O)c12 | 1.29 µM | 2.78
CC(C)(C)OC(=O)c1ccc(NCc2cc(O)ccc2O)cc1 | 1.51 µM | 3.45
CCCNCc1cc(C)cc2c1nc(N1CCNCC1)n2Cc1cc(C)c(F)c(C)c1 | 1.88 µM | 3.71
O=C1c2c(c3c4ccc(Br)cc4oc3c3[nH]c4ccccc4c23)C(=O)N1O | 2.38 µM | 8.36
CCOC(=O)[C@@H](C)C[C@H](Cc1ccccc1)NC(=O)c1csc([C@@H](C[C@H](C(C)C)N(C)C(=O)[C@@H](NC(=O)[C@H]2CCCCN2C)C(C)(C)C)OC(C)=O)n1 | < 0.00167 µM | 0.0752
CCN(Cc1c(F)cccc1F)c1ccc(CO)c(Cl)c1 | 0.0148 µM | 0.033
CCCCCCNc1nc(NCCCCCC)c2[nH]c(NCCCCCC)nc2n1 | 1.17 µM | 5.46
O=c1cc(-c2ccccc2F)[nH]c2cc3c(cc12)OCO3 | 6.39 µM | > 100
C=CC(=O)Nc1cccc(Nc2nc(Nc3ccc(OCCOC)cc3)ncc2F)c1 | 0.976 µM | 3.89
CC(=O)Nc1cc(F)cc(-c2ccc3[nH]cc(-c4ccccc4)c3n2)c1 | 2.09 µM | 6.4
COc1ccc(/C=N/Nc2nc3ccccc3c(=O)n2-c2ccccc2)c(OCc2ccccc2)c1 | > 100 µM | > 100
Cc1sc(C)c(-c2ccc(CO)o2)c1-c1ccc(CO)o1 | 0.0178 µM | 0.0501
CC(C)(C)c1nc2c(o1)C(=Nc1ccc(F)cc1)c1ccccc1C2=O | 5.84 µM | > 100

Structure (SMILES) | GI50 | TGI [µM]
NCCN1CCN(c2nccc(-c3ccc4ccccc4c3)n2)CC1 | 1.77 µM | 3.42
CNC(=O)c1ccc(-c2cnc3ncc(Cc4ccc5ncccc5c4)n3n2)cc1F | 92.3 µM | > 100
CCNCCOc1ccc(/C(=C(/CC)c2ccc(Cl)cc2)c2ccc(OCCCN(C)C)cc2)cc1 | 1.52 µM | 5.35
CC(=O)n1c(-c2ccc(Cl)cc2)nc2c(c1=O)C(c1ccc(Cl)cc1)c1sc3c(Cl)cccc3c1O2 (configuration not stated) | 0.225 µM | 0.56
O=C(N/N=C/c1ccc(Cl)cc1Cl)c1ccccc1Nc1cccc(C(F)(F)F)c1 | 2.88 µM | 12
CNC(=O)c1cn(C[C@H](F)CCc2ccc(NC(=O)Cc3cc(OC4CC(F)(F)C4)cc(C)n3)nn2)nn1 | > 100 µM | > 100
Cc1ccc(-c2nc(C(Cl)Cl)n3nc(-c4ccccc4)cc3n2)cc1 | 0.239 µM | 0.612
COc1ccc(NC2=C(Br)C(=O)C(C)=C(C)C2=O)cc1 | 1.56 µM | 3.16
CCCS(=O)(=O)c1nc(NC2CC2)cc(-c2ccc3c(ccn3C3CC(C)(C)NC(C)(C)C3)c2)n1 | 1.75 µM | 3.61
COCC(=O)OC1CCn2c1nc1c2C(=O)C(C)=C(NC(C)=O)C1=O (configuration not stated) | 0.27 µM | 0.894
C=CC(=O)N1CCN(c2ncnc3c(F)c(-c4c(O)cccc4F)c(Cl)cc23)CC1 | 10.2 µM | 31.1
C=C1C(=O)O[C@H]2[C@H]1CC/C(COC(=O)c1cc3cc(OC)ccc3[nH]1)=C\CC[C@@]1(C)O[C@@H]21 | 1.13 µM | 2.85
CC1=C(C)C(=O)O[C@@H]([C@](C)(O)[C@]2(O)CC[C@@]3(O)[C@@H]4C[C@H]5O[C@]56CC=CC(=O)[C@]6(C)[C@H]4CC[C@]23C)C1 | 0.119 µM | 0.725
O=C(Nc1cc(-c2ccccc2)[nH]n1)c1ccc(Cl)cc1 | > 100 µM | > 100
CCCSc1cc(Cl)nc(N)n1 | 85.8 µM | > 100
COc1ccc(/C=N/NC(=O)c2[nH]c3ccc(Br)cc3c2-c2ccccc2)s1 | 0.0586 µM | 3.78
Oc1ccc(Cc2ccccc2)c2cccnc12 | 1.92 µM | 5.51
C=CCOc1c(Br)cc(Br)cc1Br | 26.4 µM | > 100
Cc1ncc(NC(=O)c2ccc(CN3CCN(C)CC3)c(C(F)(F)F)c2)cc1Nc1nccc(-c2cccnc2)n1 | 14.6 µM | 29.4
CC(=O)O[C@H]1C(=O)[C@@]2(C)[C@H]([C@H](OC(=O)c3ccccc3)[C@]3([O-])C[C@H](OC(=O)[C@H]([O-])[C@@H](NC(=O)c4ccccc4)c4ccccc4)C(C)=C1C3(C)C)[C@]1(OC(C)=O)CO[C@@H]1C[C@@H]2[O-].[Fe+3] | 0.0351 µM and 0.0363 µM | 
CS(=O)(=O)Nc1ccc(-c2ccc3c(NC(=O)C4CC4)n[nH]c3c2)cc1 | 7.2 µM | > 23.7
O=P(O)(O)C(O)(Cn1ccnc1)P(=O)(O)O | > 87.3 µM | > 100
Nc1nc(Nc2ccc(OCc3cccc(F)c3)cc2)c2c(n1)[nH]c1ccc(O)cc12 | 1.98 µM | 5.36
COc1cc(-c2cn(C)c(=O)c(C)c2C)cc(OC)c1CN1CC[C@H](N2CCN(c3ccc(N[C@H]4CCC(=O)NC4=O)cc3F)CC2)C(F)(F)C1 | 7.26 µM | 22.3
